The test system of data set [1] is innate immune cytokines IL-1β or TNF-α. The settings on record: oral, recent EAE experiments; cited from earlier work.
Data set [2] concerns experimental autoimmune encephalomyelitis. The settings on record: parenteral, mice; cited from earlier work.
For data set [3], the system named is active MOG peptide 35-55 immunized recipient mice. In words: Adoptive transfer of splenocytes from neuropeptide Y fed donors, clinical score of recipients. The format is in vivo, B6 mice. The note with it: placebo donors maximum 2.3.
Data set [4] has as its system spinal cords of MOG peptide 35-55 immunized B6 mice. As to the kind of experiment: Spinal cord histology, inflammatory foci, actively fed mice. The format is in vivo. The note with it: thirty days following immunization, mock fed 11.6±0.5. As for the experimental part: Following sacrifice, spinal cords were removed and immersion fixed in 10% neutral buffered formalin for a minimum of two weeks. After fixation, cords were sectioned in entirety in the horizontal plane at approximately 3 mm intervals and processed to paraffin. Paraffin blocks were sectioned at 6-8 microns, and step sections were stained with hematoxylin and eosin and examined by light microscopy. Cord sections were evaluated independently for foci of inflammation by a blinded observer (SAB), without knowledge of the treatment status of the mice prior to sacrifice. Spinal cord tissue was sampled in an identical fashion for each animal and numbers of inflammatory foci per high-powered field (HPF) (>20 perivascular lymphocytes) in the parenchyma were counted.

The subject of data set [5] is spinal cords of recipient mice. As to the kind of experiment: Spinal cord histology, inflammatory foci, recipients of adoptively transferred cells. The class given is in vivo, B6 mice. The settings on record: thirteen days following adoptive transfer, placebo donors 7.48±0.28. Here is the method: Thirty days after inoculation and after peak score of clinical attack, all spleens from each treatment group were aseptically removed, single cell suspensions prepared, and red cell lysis performed by adding 2-3 ml sterile water to single cells for 5 seconds, and once the solution became transparent, adding AIM-V media to a 50 ml tube. Splenocytes from grouped saline (mock) fed, 1 μg or 10 μg neuropeptide Y fed mice were re-stimulated with MOG peptide 35-55 at a final concentration of 10 μg/ml for 48 hours in serum free medium (AIM-V medium, Gibco BRL, Grand Island, N.Y.) with 2×10^5 cells/[…] in triplicate in 96 well U-bottomed plates in a humidified 5% CO2/95% air incubator at 37° C. Following incubation, cells were collected, washed twice in PBS, and viability determined by standard Trypan blue exclusion. […] Following administration of neuropeptide Y or adoptive transfer, clinical outcome is measured by comparing the difference between group mean active treatment and placebo group scores from day 17-30 post immunization.
Following sacrifice, spinal cords were removed and immersion fixed in 10% neutral buffered formalin for a minimum of two weeks. […] Cord sections were evaluated independently for foci of inflammation by a blinded observer (SAB), without knowledge of the treatment status of the mice prior to sacrifice. […]

For data set [6], the system named is splenic lymphocytes stimulated with MOG peptide 35-55. In words: Cytokine secretion, MOG re-stimulated splenic lymphocytes of fed mice. The class given is in vivo, B6 mice. As for the experimental part:
(§1) Spleens and spinal cords (CNS) from each treatment group were aseptically removed and single cell suspensions prepared. In spinal cords, whole cords were passed through a cell strainer for CNS lymphocytes (B & D, Franklin Lakes, N.J.) and spun at 600 rpm several times to separate lymphocytes from CNS tissue. Splenocytes and cord lymphocytes from grouped saline fed or 10 mcg NPY fed mice were stimulated with 10 mcg MOG peptide 35-55×48 hours as previously described (5, 6). Murine cytokine responses were examined using a customized RayBio Mouse Cytokine Inflammatory Antibody Array including innate cytokine IL-1β and TNF-α, IL-17 (Teff), Th1-like (IL-2, IFN-γ), Th2-like cytokines (IL-4, IL-10, IL-13) and IL-12p70 using the RayBioantibody array Analysis tool application (RayBiotech, Inc, Norcross, Ga.). Results were grouped from mice fed saline or mice fed with NPY from grouped samples of two separate experiments (each sample performed in duplicate) and expressed as pg/ml±SEM (student t-test).

For data set [7], the system named is splenocytes of recipients stimulated with MOG peptide 35-55. In words: Cytokine secretion, splenic lymphocytes of recipients of donor cells. The format is in vivo, B6 mice. As for the experimental part:
(§2) Thirty days after inoculation and after peak score of clinical attack, all spleens from each treatment group were aseptically removed, single cell suspensions prepared, and red cell lysis performed by adding 2-3 ml sterile water to single cells for 5 seconds, and once the solution became transparent, adding AIM-V media to a 50 ml tube. Splenocytes from grouped saline (mock) fed, 1 μg or 10 μg neuropeptide Y fed mice were re-stimulated with MOG peptide 35-55 at a final concentration of 10 μg/ml for 48 hours in serum free medium (AIM-V medium, Gibco BRL, Grand Island, N.Y.) with 2×10^5 cells/[…] in triplicate in 96 well U-bottomed plates in a humidified 5% CO2/95% air incubator at 37° C. Following incubation, cells were collected, washed twice in PBS, and viability determined by standard Trypan blue exclusion. Viable concentrations were adjusted to 10^7 cells/0.5 ml Dulbecco's PBS immediately prior to i.p. injection into active MOG peptide 35-55 immunized recipient mice during ongoing disease (˜day 17 post immunization). Following administration of neuropeptide Y or adoptive transfer, clinical outcome is measured by comparing the difference between group mean active treatment and placebo group scores from day 17-30 post immunization.
as §1

Data set [8] deals with actively immunized recipients (ongoing disease). In words: Adoptive transfer of in vitro neuropeptide Y treated MOG restimulated activated macrophages. The class given is in vivo. The settings on record: preliminary experiments.
The subject of data set [9] is CNS lymphocytes of recipients stimulated with MOG peptide 35-55. In words: Cytokine secretion, CNS lymphocytes of recipients of donor cells. The format is in vivo, B6 mice. Here is the method:
as §2, §1

Data set [10] has as its system MOG peptide 35-55 immunized B6 mice (experimental autoimmune encephalomyelitis). In words: Active EAE, ingested neuropeptide Y, clinical score. The format is in vivo. The note with it: vs placebo, p<0.001 ANOVA.
A further data set concerns CD4+CD25+FoxP3+ Treg. As to the kind of experiment: Phenotypic analysis (FACS) of Treg frequency. The class given is in vivo, B6 mice. The settings on record: data not shown. Here is the method:
CD25 and FOXP3 expression by CD3+CD4+ lymphocytes was analyzed using the Beckman Coulter 10-Color Gallios Flow Cytometer and mouse regulatory T Cell Staining Kit with PE Foxp3 FJK-16s, FITC CD4, APC CD25 (eBioscience, San Diego, Calif.) following the manufacturer's instructions.

Data set [11] concerns CNS lymphocytes stimulated with MOG peptide 35-55. As to the kind of experiment: Cytokine secretion, MOG re-stimulated CNS (spinal cord) lymphocytes of fed mice. The format is in vivo, B6 mice. Here is the method:
as §1

Data set [12] in a line: Toxicity on extended oral administration. The settings on record: orally administered to mice over an extended time period. The format is in vivo.
Setting [13] is: both fed groups (1 & 10 mcg) vs mock fed.
[14] abbreviates: splenic lymphocytes of recipients of fed donor cells vs mock.
The mark [15] stands for this setting: CNS lymphocytes of recipients of fed donor cells vs mock.
The mark [16] stands for this setting: CNS lymphocytes of recipients, 10 mcg fed group vs mock.

Here are results for two substances from US9956268B2, “Neuropeptide Y treatment of autoimmune disease” (priority 2012, dated 2018).

Turning to “Adrenocorticotropin hormone (SYSMEHFRWGKPVGKKRRPVKVYPNGAEDESAEAFPLEF; Corticotropin; UniProt P01189 138-176, looked up) [ACTH]”, the “reduction of innate immune cytokines IL-1β or TNF-α” value in [1] is on record as “no reduction”.

In the case of Neuropeptide Y, the “induction of experimental autoimmune encephalomyelitis” value in data set [2] is given as “significantly inhibits”. Besides, the “group clinical score at day 30” value in [3] (recipients of donor splenocytes from 1 mcg fed mice) amounted to 1.4; in data set [3] (recipients of donor splenocytes from 10 mcg fed mice), 0.88. Further, the “mean group inflammatory score (inflammatory foci)” value was 6.4±0.16 in [4] (1 mcg fed group) and 5.55±0.28 in data set [4] (10 mcg fed group). Moreover, the “mean group inflammatory score (CNS inflammatory foci)” value stood at 4.87±0.22 in data set [5] (recipients of 1 mcg fed donors) and 5.91±0.22 in [5] (recipients of 10 mcg fed donors). Besides, the IL-12p70 level result in data set [6] (10 mcg dosed vs mock fed) is “decreased”. The TNF-α level entry was “decreased” in data set [6] (10 mcg dosed vs mock fed), “significant decreases” in data set [7] (setting [14]), “significant decreases” in data set [9] (setting [16]) and “significant decreases” in data set [11] (fed vs mock fed). In addition, the IFN-γ level entry in data set [6] (setting [13]), in data set [7] (setting [14]), in data set [9] (setting [16]) and in [11] (fed vs mock fed) was “significant decreases” throughout. The IL-1β level result in data set [6] (setting [13]), in data set [7] (setting [14]), in data set [9] (setting [15]) and in [11] (fed vs mock fed) was “significant decreases” each time. In addition, the IL-2 level entry in [6] (setting [13]) was “significant decreases”; in data set [7] (splenic lymphocytes of recipients, 10 mcg fed donor cells vs mock) it was “significant decreases”; in data set [9] (setting [16]), “significant decreases”; in [11] (fed vs mock fed) it was “significant decreases”. Moreover, the “MOG induced IL-4 production” value in data set [6] (dosed vs mock dosed) is “increased”. The “MOG induced IL-10 production” value is on record as “increased” in data set [6] (dosed vs mock dosed) and “increased” in [9] (CNS lymphocytes of recipients, 1 mcg fed group vs mock). Further, the “MOG induced IL-13 production” value in data set [6] (dosed vs mock dosed) is listed as “increased”; in data set [7] (setting [14]) it was “increased”; in data set [9] (CNS lymphocytes of recipients, both dosed groups vs mock), “increased”; in [11] (dosed vs mock dosed), “increased”. The IL-12 level result in [7] (setting [14]) is “significant decreases”; in [9] (CNS lymphocytes of recipients of fed donor cells vs mock, p<0.03 (FIG. 8 legend)), “decreased”; in [11] (fed vs mock fed), “significant decreases”. Besides, the “IL-17 (Teff) level” value in [7] (setting [14]), in [9] (setting [15]) and in data set [11] (fed vs mock fed) was “significant decreases” throughout. In data set [8], the “ongoing disease after adoptive transfer” value was “robust inhibition”. Further, the group clinical score result was “significant decreases in group clinical scores” in data set [10] (1 mcg fed (gavage) from day 17, days 17-30 post immunization) and “significant decreases in group clinical scores” in data set [10] (10 mcg fed (gavage) from day 17, days 17-30 post immunization). Also, the “CD4+CD25+FoxP3+ cell frequency” value in the data set on CD4+CD25+FoxP3+ Treg (actively fed mice vs mock fed) and in the data set with CD4+CD25+FoxP3+ Treg (recipients of actively fed donor cells vs mock) was “no significant increase” each time. Besides, the toxicity result in data set [12] is given as “no detectable toxicity”.
